Results published in US10858360B2, “Tricyclic gyrase inhibitors” (priority 2011, dated 2020).
≈ marks a conversion by molar mass, not a printed value.

Key:
S. aureus ATCC 13709 = test: MIC, S. aureus ATCC 13709 (Alamar Blue broth microdilution); type: cell-based; conditions: Alamar Blue read after overnight incubation at 35° C.; for MIC: Staphylococcus aureus, ATCC13709, S. aureus; for MIC Sa: S. aureus
E. coli ATCC 25922 = test: MIC, E. coli ATCC 25922; type: cell-based; conditions: Alamar Blue read after overnight incubation at 35° C.; for MIC: Escherichia coli, ATCC25922, E. coli; for MIC Ec: E. coli

**Q.** Which MIC (S. aureus ATCC 13709) does the source give for NC1CN(c2nc(Sc3cnc4nccnc4c3)nc3[nH]c4ccccc4c23)C1 [1.5] here?
**A.** The MIC was over 64 µg/mL.

**Q.** What about the MIC (E. coli ATCC 25922) of the same compound?
**A.** Its MIC is over 64 µg/mL.

**Q.** Which “MIC Sa” value (S. aureus ATCC 13709) does the source give for CNc1cc(F)cc2c1[nH]c1nc(Oc3cnc(C)nc3)nc(N3CC4(CCCN4)C3)c12 [4.119] here?
**A.** Its value is at most 0.5 µg/mL.

**Q.** What about the “MIC Ec” value (E. coli ATCC 25922) of the same compound?
**A.** The value was 2 µg/mL (≈ 4.6 µM).

**Q.** What does the source list for CNc1cc(F)cc2c1[nH]c1nc(Oc3cnc(SC)nc3)nc(N3CCC4(C[C@H]4N)C3)c12 (some centres unmarked) [4.203]?
**A.** MIC Sa (S. aureus ATCC 13709): ≤0.5 µg/mL; MIC Ec (E. coli ATCC 25922): ≤0.5 µg/mL

**Q.** With CNc1cc(F)cc2c1[nH]c1nc(Oc3cnc(C)nc3)nc(N3CC4CCC(N)C3C4)c12 (centres unmarked) [4.123] as the compound, how does the “MIC Sa” value (S. aureus ATCC 13709) read?
**A.** The value was 16 µg/mL (≈ 35.7 µM).

**Q.** What about the “MIC Ec” value (E. coli ATCC 25922) of the same compound?
**A.** Its value is over 16 µg/mL.

**Q.** With CNc1cccc2c1[nH]c1nc(Sc3cnc4cccnc4c3)nc(N3CC4C(N)C4C3)c12 (centres unmarked) [1.24] as the compound, how does the “MIC Sa” value (S. aureus ATCC 13709) read?
**A.** Its value is at most 0.5 µg/mL.

**Q.** What about the “MIC Ec” value (E. coli ATCC 25922) of the same compound?
**A.** Its value is 1 µg/mL (≈ 2.2 µM).

**Q.** Which “MIC Sa” value (S. aureus ATCC 13709) does the source give for CNc1cc(F)cc2c1[nH]c1nc(Oc3cnc(C)nc3)nc(N3CC4CC(N)CC4C3)c12 (centres unmarked) [4.104] here?
**A.** Its value is at most 0.5 µg/mL.

**Q.** And the “MIC Ec” value (E. coli ATCC 25922)?
**A.** Its value is at most 0.5 µg/mL.

**Q.** Which results are given for CNc1cccc2c1[nH]c1nc(Sc3cnc4ccc[n+]([O-])c4c3)nc(N3CCC4(CC4N)C3)c12 (centres unmarked) [1.39]?
**A.** MIC Sa (S. aureus ATCC 13709): ≤0.5 µg/mL; MIC Ec (E. coli ATCC 25922): 1 µg/mL (≈ 2.06 µM)

**Q.** Which MIC (S. aureus ATCC 13709) does the source give for CNc1cccc2c1[nH]c1nc(Oc3cncnc3)nc(N3CC4CCC(N)C4C3)c12 (centres unmarked) [3.15] here?
**A.** The MIC was 1 µg/mL (≈ 2.4 µM).

**Q.** What about the MIC (E. coli ATCC 25922) of the same compound?
**A.** Its MIC is 8 µg/mL (≈ 19.2 µM).

**Q.** What does the source list for CNc1cccc2c1[nH]c1nc(Sc3cnc4ccc[n+]([O-])c4c3)nc(N3CC4C(C3)C4NC(=O)[C@H](C)N)c12 (some centres unmarked) [1.52]?
**A.** MIC (S. aureus ATCC 13709): 1 µg/mL (≈ 1.85 µM); MIC (E. coli ATCC 25922): 16 µg/mL (≈ 29.5 µM)

**Q.** CNc1cc(F)cc2c1[nH]c1nc(Oc3cnc(C)nc3)nc(N3CC(NC(=O)CNC(=O)C(N)CO)C4(CC4)C3)c12 (centres unmarked) [4.127] was tested. Which “MIC Sa” value (S. aureus ATCC 13709) did it give?
**A.** The value was 8 µg/mL (≈ 13.8 µM).

**Q.** And the “MIC Ec” value (E. coli ATCC 25922)?
**A.** The value was over 16 µg/mL.

**Q.** How did the MIC (S. aureus ATCC 13709) turn out when CNc1cc(F)cc2c1[nH]c1nc(Sc3cnc4ccc[n+]([O-])c4c3)nc(N3CC4C(N)C4C3)c12 (centres unmarked) [1.50] was run?
**A.** Its MIC is at most 0.5 µg/mL.

**Q.** What about the MIC (E. coli ATCC 25922) of the same compound?
**A.** Its MIC is at most 0.5 µg/mL.

**Q.** Which results are given for CNc1cc(F)cc2c1[nH]c1nc(Oc3cnc(C)nc3)nc(N3CC(N)C(C(=O)NCCN4CCOCC4)C3)c12 (centres unmarked) [4.440]?
**A.** MIC (S. aureus ATCC 13709): 16 µg/mL (≈ 28.3 µM); MIC (E. coli ATCC 25922): > 16 µg/mL

**Q.** Which “MIC Sa” value (S. aureus ATCC 13709) does the source give for CNc1cc(F)cc2c1[nH]c1nc(Oc3cnc(C)nc3)nc(N3CC(N)C(F)C3)c12 (centres unmarked) [4.137] here?
**A.** Its value is at most 0.5 µg/mL.

**Q.** What about the “MIC Ec” value (E. coli ATCC 25922) of the same compound?
**A.** The value was 1 µg/mL (≈ 2.35 µM).

**Q.** Which MIC (S. aureus ATCC 13709) does the source give for CNc1cccc2c1[nH]c1nc(Sc3cnc4cccnc4c3)nc(N3CCNCC3)c12 [1.46] here?
**A.** Its MIC is 2 µg/mL (≈ 4.52 µM).

**Q.** What about the MIC (E. coli ATCC 25922) of the same compound?
**A.** The MIC was 4 µg/mL (≈ 9.04 µM).

**Q.** What does the source list for CNc1cc(F)cc2c1[nH]c1nc(Oc3cnc(C(C)(C)C)nc3)nc(N3CC4CC3C[C@H]4N)c12 (some centres unmarked) [4.441]?
**A.** MIC (S. aureus ATCC 13709): ≤ 0.5 µg/mL; MIC (E. coli ATCC 25922): ≤ 0.5 µg/mL

**Q.** Which results are given for CNc1cc(F)cc2c1[nH]c1nc(Oc3ccnnc3)nc(N3CC(N)C4(CC4)C3)c12 (centres unmarked) [4.230]?
**A.** MIC Sa (S. aureus ATCC 13709): 32 µg/mL (≈ 76.1 µM); MIC Ec (E. coli ATCC 25922): >16 µg/mL

**Q.** How did the “MIC Sa” value (S. aureus ATCC 13709) turn out when CNc1cc(F)cc2c1[nH]c1nc(Oc3ccc(C#N)nc3)nc(N3CCC4(C[C@H]4N)C3)c12 (some centres unmarked) [4.334] was run?
**A.** Its value is at most 0.5 µg/mL.

**Q.** What about the “MIC Ec” value (E. coli ATCC 25922) of the same compound?
**A.** Its value is 8 µg/mL (≈ 18 µM).

**Q.** What does the source list for CNc1cc(F)cc2c1[nH]c1nc(Oc3cnc(C(C)(C)C)nc3)nc(N3CCC4CNC4C3)c12 (centres unmarked) [4.317]?
**A.** MIC (S. aureus ATCC 13709): ≤ 0.5 µg/mL; MIC (E. coli ATCC 25922): 2 µg/mL (≈ 4.2 µM)

**Q.** How did the MIC (S. aureus ATCC 13709) turn out when CNc1cc(F)cc2c1[nH]c1nc(Oc3ccc[n+]([O-])c3)nc(N3CC4C[C@@H](N)C4C3)c12 (some centres unmarked) [4.349] was run?
**A.** Its MIC is at most 0.5 µg/mL.

**Q.** What about the MIC (E. coli ATCC 25922) of the same compound?
**A.** Its MIC is 1 µg/mL (≈ 2.3 µM).

**Q.** What does the source list for CNc1cccc2c1[nH]c1nc(Sc3cnc4cccnc4c3)nc(N3CCN(c4cnccn4)CC3)c12 [1.54]?
**A.** MIC (S. aureus ATCC 13709): ≤ 0.5 µg/mL; MIC (E. coli ATCC 25922): > 64 µg/mL

**Q.** CNc1cc(F)cc2c1[nH]c1nc(Oc3cncnc3)nc(N3C[C@H]4CC[C@@H](CN)[C@H]4C3)c12 [4.021] was tested. Which MIC (S. aureus ATCC 13709) did it give?
**A.** The MIC was at most 0.5 µg/mL.

**Q.** And the MIC (E. coli ATCC 25922)?
**A.** Its MIC is 2 µg/mL (≈ 4.46 µM).

**Q.** For CNc1cc(F)cc2c1[nH]c1nc(Oc3ccc4c(c3)C(=O)NC43CC3)nc(N3CC4(CCC4N)C3)c12 (centres unmarked) [4.380], which “MIC Sa” value (S. aureus ATCC 13709) is on record?
**A.** The value was 4 µg/mL (≈ 8.01 µM).

**Q.** And the “MIC Ec” value (E. coli ATCC 25922)?
**A.** The value was 16 µg/mL (≈ 32 µM).

**Q.** What does the source list for CNc1cccc2c1[nH]c1nc(Sc3cnc4cccnc4c3)nc(N3CCCCC(N)C3)c12 (centres unmarked) [1.45]?
**A.** MIC (S. aureus ATCC 13709): 1 µg/mL (≈ 2.12 µM); MIC (E. coli ATCC 25922): 4 µg/mL (≈ 8.5 µM)

**Q.** How did the MIC (S. aureus ATCC 13709) turn out when CCc1cc(F)cc2c1[nH]c1nc(Oc3cnc(C)nc3)nc(N3CC(N)C4(CC4)C3)c12 (centres unmarked) [2.3] was run?
**A.** The MIC was 1 µg/mL (≈ 2.31 µM).

**Q.** What about the MIC (E. coli ATCC 25922) of the same compound?
**A.** Its MIC is 16 µg/mL (≈ 36.9 µM).

**Q.** With CNc1cccc2c1[nH]c1nc(Sc3cnc4ccc[n+]([O-])c4c3)nc(N3CC[C@H](N)C3)c12 [1.14] as the compound, how does the MIC (S. aureus ATCC 13709) read?
**A.** The MIC was at most 0.5 µg/mL.

**Q.** What about the MIC (E. coli ATCC 25922) of the same compound?
**A.** Its MIC is 1 µg/mL (≈ 2.18 µM).
